Measurements: patent US6380179B1, “Method for treatment of alopecia” (Sankyo Company, Limited, priority 1997, dated 2002)

Assays:
[1] = system: dihydrotestosterone (DHT) and testosterone (T) levels in blood; assay: Effects for lowering the dihydrotestosterone level in human blood after oral administration; format: in vivo; conditions: n=4 to 6
Method: Effects for Lowering the Dihydrosterone Level in Human Blood
To a human body, 1 to 10 mg/body of Compound I or 5 mg/body of Finasteride was orally administered and the dihydrotestosterone (DHT) and testosterone (T) levels in blood were measured. Their ratios (DHT/T) before administration (pre) and after passage of time (10 and 18 hours) were calculated, from which (DHT/T)/(DHT/T)pre was calculated.

[2] = molecular target: T1, recombinant type I human 5α-reductase (Homo sapiens, UniProt P18405); assay: Inhibitory activity against recombinant type I human 5α-reductase (conversion of 14C testosterone to 14C 5α-dihydrotestosterone); format: biochemical; conditions: recombinant human type I 5α-reductase, pH 7.5, 1 μM 14C testosterone, 37° C. 15 minutes; Table 1
T1 construct: In order to clone the entirely translated regions of type I and type II human 5α-reductases by a polymerase chain reaction (PCR) method; made in house; host or cells: COS-1 cells transiently transfected with pME18sH5R1; resuspended 10000×g pellet of the homogenate used as the enzyme
T1 sequence (P18405 1-259): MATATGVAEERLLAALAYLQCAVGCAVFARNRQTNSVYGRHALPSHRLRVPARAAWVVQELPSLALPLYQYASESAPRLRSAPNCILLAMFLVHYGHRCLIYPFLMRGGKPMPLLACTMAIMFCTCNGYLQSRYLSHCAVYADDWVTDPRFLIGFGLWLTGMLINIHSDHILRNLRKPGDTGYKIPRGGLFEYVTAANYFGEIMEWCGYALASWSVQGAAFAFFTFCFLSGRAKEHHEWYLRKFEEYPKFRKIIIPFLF
Method: Method for Determination of the Inhibitory Activity Against Each of Type I and Type II Human 5α-reductases
(1) Preparation of recombinant human type I and type II 5α-reductases
In order to clone the entirely translated regions of type I and type II human 5α-reductases by a polymerase chain reaction (PCR) method, primers of Sequence ID. Nos. 1,2,3 and 4 were prepared using an Oligo 1000 DNA synthesizer (product of BECKMAN Co., Ltd.) on the basis of the base sequences of type I and type II human 5α-reductases described in published reports (Stefan. A, et al., Proc. Natl. Acad. Sci. USA, 87, 3640-3644(1990). Stefan. A, et al. Nature, 354. 159-161(1991)).
PCR was carried out using 1 μl of cDNA. 5 μl of a PCR buffer attached. 1 μl of a 10 mM dNTP mixed solution. 1 μl each of the above-described sense and antisense-primers at a concentration of 20 μl M. 1 μl of […] of TaKaRa Taq polymerase and 40 μl of distilled water to give a reaction volume of 50 μl. For PCR, a cycle of the reactions at 94° C. for 20 seconds, at 55° C. for 1 minute and at 72° C. for 1 minute was repeated 25 times, followed by storing at 4° C. […]
The protein content was measured by the Bradford method (Bio-Rad Protein Assay of Biorad) by using bovine gamma-globulin (bovine cohn fraction II, product of Sigma) as a standard product. […]

[3] = system: monkey model animal of male pattern baldness; conditions: cited from earlier work
human baldness = conditions: clinical test; cited from earlier work

SMILES | (DHT/T)/(DHT/T)pre ([1]; 1 mg/body, after 10 hours) | (DHT/T)/(DHT/T)pre ([1]; 1 mg/body, after 18 hours) | (DHT/T)/(DHT/T)pre ([1]; 5 mg/body, after 10 hours) | (DHT/T)/(DHT/T)pre ([1]; 5 mg/body, after 18 hours) | (DHT/T)/(DHT/T)pre ([1]; 10 mg/body, after 10 hours) | (DHT/T)/(DHT/T)pre ([1]; 10 mg/body, after 18 hours) | IC50 [2] | effectiveness on baldness [3] | effects on human baldness (human baldness)
COc1ccc(C(C)(C)NC(=O)[C@H]2CC[C@H]3[C@@H]4CC[C@H]5NC(=O)C=C[C@]5(C)[C@H]4CC[C@]23C)cc1 [Compound of Reference Example 1, N-[1-Methyl1-(4-methoxyphenyl)ethyl]-3-oxo4-aza-5α-androsto-1-ene-17β-carboxamide] | 0.518 | 0.525 | 0.411 | 0.376 | 0.279 | 0.284 | 49 nM |  | 
CC(C)(C)NC(=O)[C@H]1CC[C@H]2[C@@H]3CC[C@H]4NC(=O)C=C[C@]4(C)[C@H]3CC[C@]12C [Finasteride, reference compound] |  |  | 0.553 | 0.461 |  |  | 700 nM | effective in the treatment of baldness | have been recognized
CC(C)CCCC(C)C1CCC2C3C(C)CC4N(C)C(=O)CCC4(C)C3CCC12C (stereo not shown) [MK386] |  |  |  |  |  |  |  | not recognized | 
